According to US20170333390A1, “PHYTOCHEMICAL COMPOSITIONS INCLUDING SESAMIN FOR ANTI-INFLAMMATORY, ANTI-CYTOKINE STORM, AND OTHER USES” (CHIANG MAI UNIVERSITY, priority 2009, published 2017):

Assays:
[1] = test system: cartilage tissue cultures exposed to IL-1 (ECM degradation, HA release); experiment: HA release from IL-1 exposed cartilage tissue cultures (ELISA); type: cell-based; settings: relative to control culture
Method: Experiments were conducted to evaluate the anti-inflammatory effects of combinations of particular phytochemical compositions provided by the present disclosure with known substances, compositions, or drugs that are associated with an anti-inflammatory effect and/or an anti-degenerative or tissue integrity preservation effect in connective tissue. In the context of the present disclosure, the term “connective tissue” encompasses connective tissue proper (e.g., dense or fibrous connective tissue), as well as specialized connective tissue such as cartilage or bone. More specifically, experiments were conducted to evaluate the anti-inflammatory, anti-degenerative, and/or structural preservation effects of a combination of particular phytochemical compositions provided by the present disclosure with glucosamine sulfate. In addition, the experiments compared the anti-inflammatory/anti-degenerative effects of the combination of particular sesamin or sesamin-based phytochemical compositions provided by the present disclosure plus glucosamine sulfate, versus the anti-inflammatory/anti-degenerative effects of glucosamine sulfate alone.
Hyaluronic acid (HA) is an important component of the extracellular matrix (ECM), as well as a major component of synovial fluid. HA is present in articular cartilage, and contributes to cartilage resilience. It is known that IL-1 stimulates the synthesis and activity of matrix metalloproteinases and other enzymes that are associated with cartilage degradation as well as rheumatoid arthritis and osteoarthritis. A set of experimental cartilage tissue cultures were prepared using cartilage tissue samples containing HA within their ECMs. As further detailed below, the experimental cartilage tissue cultures selectively incorporated glucosamine sulfate alone; sesamin alone; or a combination of glucosamine sulfate and sesamin. Additionally, a control cartilage tissue culture remained unexposed to either of sesamin or glucosamine sulfate.
ECM degradation was induced in the experimental and control cartilage tissue cultures by exposing the cultures to IL-1. A measure or estimate of a cartilage tissue anti-degenerative effect was defined in accordance with an amount of HA that an experimental cartilage tissue culture released into the tissue culture medium relative to a reference or baseline amount of HA that was released into the tissue culture medium by the control cartilage tissue culture. More particularly, a percentage reduction in the amount of HA released into the tissue culture medium by a given experimental cartilage tissue culture relative to the amount of HA released into the tissue culture medium by the control cartilage tissue culture, indicated below as “Percentage (%) HA Reduction”, conveys or indicates the magnitude of an anti-degenerative or structural preservation effect provided by the experimental cartilage tissue culture under consideration. A corresponding measure or estimate of percentage (%) HA retention by cartilage tissue can also be defined based upon the experimental results. The amount or level of HA present in a given tissue culture medium was detected using ELISA, in a manner that can be understood by one of ordinary skill in the art.

[2] = test system: IL-2 gene expression in LPS induced peripheral blood mononuclear cells (PBMCs); experiment: IL-2 gene expression relative to GAPDH in LPS induced PBMCs (RT-PCR); type: cell-based; settings: 1.0 ug/ml sesamin (culture 4), LPS 20 ng/ml, 24 hours
Method: Experiments were conducted to evaluate the effect of particular phytochemical compositions provided by the present disclosure on IL-2 gene expression in specified cells found within a body of a living organism. Cells used for the experiment described in this example are LPS induced peripheral blood mononuclear cells (PBMCs). It is understood by a person having ordinary skill in the art that the PBMCs may be substituted for other immune cells found within the body. It is also understood by a person having ordinary skill in the art that other inducing substances or chemicals besides LPS, for example viral antigens, may also be used for inducing the PBMCs.
Preparation of PBMCs is done by standard isolation techniques or methods known to a person of ordinary skill in the art as with the experiments of example two. In addition, LPS can be obtained from a commercial source, for example Sigma-Aldrich Co. The PBMCs are cultured in 10% fetal calf serum in RPMI1640 medium. Five cultures of PBMCs, i.e. culture 1 to culture 5, were prepared. […]
The amount or level of IL-2 gene expression in the PBMCs was measured or determined using methods or techniques known to a person having ordinary skill in the relevant art. In example three, Real-Time PCR (RT-PCR) was used for quantifying the amount of IL-2 gene expression in the PBMCs.

Compound: c1cc2c(cc1[C@H]1OC[C@H]3[C@@H]1CO[C@@H]3c1ccc3c(c1)OCO3)OCO2 [sesamin]
- Percentage (%) HA Reduction ([1]; sesamin 0.25 uM (88.6 ug/ml)): approximately 0%
- Percentage (%) HA Reduction ([1]; sesamin 0.25 uM (88.6 ug/ml), listed as Sesamin): 0%
- Percentage (%) HA Reduction ([1]; sesamin 0.50 uM (177.2 ug/ml)): approximately 4%
- Percentage (%) HA Reduction ([1]; sesamin 0.50 uM (177.2 ug/ml), listed as Sesamin): 4%
- Percentage (%) HA Reduction ([1]; sesamin 1.00 uM): approximately 43%
- Percentage (%) HA Reduction ([1]; sesamin 1.00 uM, listed as Sesamin): 56%
- increase in IL-2 gene expression relative GAPDH [2]: approximately 220%
